As usually defined, the pKi is the Ki on a negative log10 scale, so that one unit is a factor of ten.

Test [1] relates to TGF-β-stimulated SMAD3 phosphorylation in BEAS-2B cells. The experiment in a line: Cellular ALK5 potency assay, inhibition of TGF-β stimulated pSMAD3 formation in BEAS-2B cells. The test is classed as cell-based. The following applies: Homo sapiens, pSMAD3, TGF-β 10 ng/mL, read-out: BEAS2B pIC50 (converted). Here is the method:
The potency of compounds of the present disclosure for inhibition of TGF-β-stimulated SMAD3 phosphorylation was measured in BEAS-2B cells, a human lung epithelial cell line. TGF-β signals through activin receptor-like kinase 5 (ALK5) immediately prior to SMAD3 phosphorylation.
BEAS-2B cells were grown using 50% DMEM (Life Technologies) and 50% F-12 (Life Technologies) media, supplemented with 10% Fetal Bovine Serum (ATCC), 25 mM HEPES (Life Technologies), and 1×Pen-Strep (Life Technologies). Cells were cultured in a humidified incubator set at 37° C., 5% CO2, and trypsonized using 0.25% Trypsin with 0.5% polyvinylpyrrolidone (PVP).
For the assay, BEAS-2B cells were seeded at 7,500 cells/well (25 μL/well) in a 384-well plate and cultured overnight. Before dosing, growth media was aspirated and the wells were rinsed with HBSS Buffer (HBSS with Calcium and Magnesium, Life Technologies) supplemented with 25 mM HEPES (Life Technologies) and 1% Bovine Serum Albumin (Roche). Compounds were serially diluted in DMSO, then further diluted with supplemented HBSS Buffer (50 μL/well) to create a compound plate 3× of the final assay concentration, at 0.3% DMSO. The diluted compounds were then added to the cells (8 μL/well) and incubated at 37° C., 5% CO2 for 1 hour. After the compound incubation, TGF-β (R&D Systems) reconstituted in supplemented HBSS Buffer was added to the cells ([…], final concentration 10 ng/mL) and incubated for a further 30 minutes, after which the cells were immediately lysed with AlphaLISA lysis buffer (PerkinElmer). AlphaLISA Acceptor and Detector beads (PerkinElmer) were added 2 hours apart, then incubated overnight to be read the next day. The potency of the compound was determined through analysis of dose-dependent quantified changes in pSMAD3 signal from baseline (non-compound treated TGF-β stimulated cells). Data are expressed as pIC50 (negative decadic logarithm IC50) values.

The target in test [2] is T1, recombinant human ALK5 (TGF-βR1) protein (Homo sapiens, UniProt P36897).
T1 construct: purchased Life Technologies PR9075A
T1 sequence (P36897 34-503): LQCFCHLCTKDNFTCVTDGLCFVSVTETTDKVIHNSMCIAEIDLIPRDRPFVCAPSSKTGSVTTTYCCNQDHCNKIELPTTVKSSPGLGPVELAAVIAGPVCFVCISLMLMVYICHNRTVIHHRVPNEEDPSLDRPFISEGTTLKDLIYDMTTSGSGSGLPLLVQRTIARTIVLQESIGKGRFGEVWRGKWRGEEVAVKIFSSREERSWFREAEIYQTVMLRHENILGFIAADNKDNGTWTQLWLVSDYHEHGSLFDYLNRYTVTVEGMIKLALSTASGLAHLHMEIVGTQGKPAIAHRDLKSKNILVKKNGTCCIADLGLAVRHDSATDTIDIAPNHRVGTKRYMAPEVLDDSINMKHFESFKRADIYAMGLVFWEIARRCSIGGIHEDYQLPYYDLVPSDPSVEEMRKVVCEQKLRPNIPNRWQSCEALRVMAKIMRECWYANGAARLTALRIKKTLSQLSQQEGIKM
In words: Biochemical ALK5 (TGF-βR1) assay to measure pKi (LANCE Ultra ULight kinase assay). As to conditions: apparent pKi, converted from pIC50 by Cheng-Prusoff. As for the experimental part:
The assays were performed in a 384-well plate (24 columns×16 wells/rows). An Echo®550 Liquid Handler (Labcyte) was used to prepare various intermediate concentrations of compounds of the present disclosure in 100% DMSO. From the intermediate concentrations, a range of concentrations (from […] to 25 μM corresponding to volumes up to 105 nL) were prepared and ejected into a final assay plate to be used to create individual dose response curves for each of the subject compounds. To a separate column within the assay plate, 105 nL of DMSO in each well was used to establish a maximum assay signal. Additionally, 105 nL of 100 μM SD-208, a selective TGF-βR1 inhibitor (Catalog #S7624, Selleck Chemicals), was used in another column of wells to establish a minimal assay signal.
With a multidrop dispenser, 8 μL of enzyme mixture (1.25× final) was added to each well. […] The plate was then sealed with an adhesive seal and allowed to equilibrate for 60 minutes at room temperature.
Next, 2 μL of 125 μM ATP (5×final, 125 μM ATP prepared in assay buffer with 2 mM DTT) was added to the incubated mixtures, covered with a MicroClime® Environmental Lid (Product No. LLS-0310, Labcyte) and immediately transferred to 37° C. The reactions were allowed to proceed at 37° C. for 60 minutes before terminating with the addition of 10 μL of detection antibody (LANCE® (lanthanide chelate excite) Ultra Europium-anti-phospo-DNA Topoisomerase 2-alpha (Thr1342)) in detection mixture (12 mM EDTA, 4 nM detection antibody prepared in detection buffer (50 mM Tris-HCl, 150 mM NaCl, 0.5% BSA (Fraction V), pH 7.0)) at room temperature. The plate was then read on a Perkin Elmer EnVision Plate Reader using europium specific reader settings with excitation and emission wavelengths set to 320 or 340 nm and 665 nm, respectively.
For dose-response analyses, percent inhibition versus compound concentrations were plotted, and pIC50 values were determined from a 4-parameter robust fit model with GraphPad Prism V5 Software (GraphPad Software, Inc., La Jolla, CA). This model obtains pIC50 values by fitting the sigmoidal dose-response (variable slope) equation to the data. Results were expressed as pIC50 (negative logarithm of IC50) and subsequently converted to pKi (negative logarithm of dissociate constant, Ki) using the Cheng-Prusoff equation. The higher the value of pKi (lower value of Ki), the greater the inhibition of ALK5 activity.
(In TR-FRET formats the signal depends on donor and acceptor labels being close together.)

pKi: −log10 of the molar value. A value given as a limit tells only on which side of the number the result lay.

As for `Cc1cccc(-c2nccc(Nc3ccnc(Nc4ccc(N5CCNC(C)C5)cc4)n3)n2)n1` (racemic) [Compound 7, N4-[2-(6-methyl-2-pyridyl)pyrimidin-4-yl]-N2-[4-[rac-(3R)-3-methylpiperazin-1-yl]phenyl]pyrimidine-2,4-diamine], in test [1], the IC50 is 25.1 to 158 nM.
Regarding `Cc1cccc(-c2nccc(Nc3ccnc(Nc4ccc(N5CCNCC5CC(=O)O[C@@H]5CCN(C)C5)cc4)n3)n2)n1` (mixture of isomers) [Compound 103, (R)-1-methylpyrrolidin-3-yl 2-(1-(4-((4-((2-(6-methylpyridin-2-yl)pyrimidin-4-yl)amino)pyrimidin-2-yl)amino)phenyl)piperazin-2-yl)acetate], the negative-log Ki (pKi) in test [2] is 8.50 to 9.40. Besides, the IC50 in test [1] was 200 to 1260 nM.
The like results for `Cc1cccc(-c2nccc(Nc3ccnc(Nc4ccc(CN5CCCC(C(=O)O[C@@H]6CCNC6)C5)cc4)n3)n2)n1` (mixture of isomers) [Compound 105, [rac-(3R)-pyrrolidin-3-yl] 1-[[4-[[4-[[2-(6-methyl-2-pyridyl)pyrimidin-4-yl]amino]pyrimidin-2-yl]amino]phenyl]methyl] piperidine-3-carboxylate] were, in that order, 9.50 to 10.40 and 25.1 to 158 nM.
The like results for `CCC(C)OC(=O)C1CN(c2ccc(Nc3nccc(Nc4ccnc(-c5cccc(C)n5)n4)n3)cc2)CCN1` (racemic) [Compound 192, [rac-(1R)-1-methylpropyl] 4-[4-[[4-[[2-(6-methyl-2-pyridyl)pyrimidin-4-yl]amino]pyrimidin-2-yl]amino]phenyl]piperazine-2-carboxylate] were, in that order, 9.50 to 10.40 and 25.1 to 158 nM.
The like results for `Cc1cccc(-c2nccc(Nc3ccnc(Nc4ccc(CN5CCCC(C(=O)O[C@H]6CCNC6)C5)cc4)n3)n2)n1` (mixture of isomers) [Compound 212, [rac-(3S)-pyrrolidin-3-yl] 1-[[4-[[4-[[2-(6-methyl-2-pyridyl)pyrimidin-4-yl]amino]pyrimidin-2-yl]amino]phenyl]methyl] piperidine-3-carboxylate] were, in that order, 9.50 to 10.40 and 25.1 to 158 nM.
Regarding `Cc1cccc(-c2nccc(Nc3ccnc(Nc4ccc(N5CCNCC5C)cc4)n3)n2)n1` (racemic) [Compound 216, N4-[2-(6-methyl-2-pyridyl)pyrimidin-4-yl]-N2-[4-[rac-(2S)-2-methylpiperazin-1-yl]phenyl]pyrimidine-2,4-diamine], in test [2], the pKi was 9.50 to 10.40. Further, the IC50 in test [1] was 25.1 to 158 nM.
With `CCC(C)OC(=O)C1CNCCN1c1ccc(Nc2nccc(Nc3ccnc(-c4cccc(C)n4)n3)n2)cc1` (racemic) [Compound 230, [rac-(1R)-1-methylpropyl] 1-[4-[[4-[[2-(6-methyl-2-pyridyl)pyrimidin-4-yl]amino]pyrimidin-2-yl]amino]phenyl]piperazine-2-carboxylate], the negative-log Ki (pKi) in test [2] is 8.50 to 9.40. Further, the IC50 in test [1] is 25.1 to 158 nM.
The like results for `Cc1cccc(-c2nccc(Nc3ccnc(Nc4ccc(N(C)C5CCNC5)cc4)n3)n2)n1` (racemic) [Compound 274, N4-[2-(6-methyl-2-pyridyl)pyrimidin-4-yl]-N2-[4-[methyl-[rac-(3R)-pyrrolidin-3-yl]amino]phenyl]pyrimidine-2,4-diamine] were, in that order, 9.50 to 10.40 and 25.1 to 158 nM.
Regarding `Cc1cccc(-c2nccc(Nc3ccnc(Nc4ccc(N5CCNC(C)C5)cc4)n3)n2)n1` (racemic) [Compound 528, N4-[2-(6-methyl-2-pyridyl)pyrimidin-4-yl]-N2-[4-[rac-(3S)-3-methylpiperazin-1-yl]phenyl]pyrimidine-2,4-diamine], in test [2], the pKi was 9.50 to 10.40.
For the molecule `Cc1cccc(-c2ncc(C(=O)O)c(Nc3ccnc(Nc4ccc(N)cc4)n3)n2)n1` [Compound 26, 4-[[2-(4-aminoanilino)pyrimidin-4-yl]amino]-2-(6-methyl-2-pyridyl)pyrimidine-5-carboxylic acid], in test [1], the IC50 is 1580 to 10000 nM.
For `Cc1cccc(-c2nccc(Nc3ccnc(Nc4ccc(CN5CC(CO)C5)cc4)n3)n2)n1` [Compound 266, [1-[[4-[[4-[[2-(6-methyl-2-pyridyl)pyrimidin-4-yl]amino]pyrimidin-2-yl]amino]phenyl]methyl]azetidin-3-yl]methanol], in test [2], the negative-log Ki (pKi) was 9.50 to 10.40.
Turning to `CNC(=O)Cc1cc(Nc2ccnc(Nc3ccc(N4CCNCC4)cc3)n2)nc(-c2cccc(C)n2)n1` [Compound 309, N-methyl-2-[2-(6-methyl-2-pyridyl)-6-[[2-(4-piperazin-1-ylanilino)pyrimidin-4-yl]amino]pyrimidin-4-yl]acetamide], in test [1], the IC50 was 200 to 1260 nM.
On to `Cc1cccc(-c2nccc(Nc3ccnc(Nc4ccc(CN5CC[C@@H](O)C5)cc4)n3)n2)n1` [Compound 319, (3R)-1-[[4-[[4-[[2-(6-methyl-2-pyridyl)pyrimidin-4-yl]amino]pyrimidin-2-yl]amino]phenyl]methyl] pyrrolidin-3-ol], for which the pKi in test [2] was at least 10.50.
In the case of `COC(=O)c1ccc(Nc2nccc(Nc3nc(-c4cccc(C)n4)ncc3C(=O)OC)n2)cc1` [Compound 468, methyl 4-[[2-(4-methoxycarbonylanilino)pyrimidin-4-yl]amino]-2-(6-methyl-2-pyridyl) pyrimidine-5-carboxylate], the IC50 in test [1] is 200 to 1260 nM.
Turning to `Cc1cccc(-c2nccc(Nc3ccnc(Nc4ncc(N5CCNCC5)s4)n3)n2)n1` [Compound 640, N4-[2-(6-methyl-2-pyridyl)pyrimidin-4-yl]-N2-(5-piperazin-1-ylthiazol-2-yl)pyrimidine-2,4-diamine], the negative-log Ki (pKi) in test [2] is 7.50 to 8.40.
Still for that read-out and setting: then `CNC(=O)Cc1cc(Nc2ccnc(Nc3ccc(N4CCNCC4)cc3)n2)nc(-c2cccc(C)n2)n1` [Compound 1008, N-methyl-2-[2-(6-methyl-2-pyridyl)-6-[[2-(4-piperazin-1-ylanilino)pyrimidin-4-yl]amino]pyrimidin-4-yl] acetamide], with 7.50 to 8.40; and `COC(=O)c1ccc(Nc2nccc(Nc3nc(-c4cccc(C)n4)ncc3C(=O)OC)n2)cc1` [Compound 1043, methyl 4-[[2-(4-methoxycarbonylanilino)pyrimidin-4-yl]amino]-2-(6-methyl-2-pyridyl)pyrimidine-5-carboxylate], with 7.50 to 8.40; and `Cc1cccc(-c2ncc(C(=O)O)c(Nc3ccnc(Nc4ccc(N)cc4)n3)n2)n1` [Compound 1044, 4-[[2-(4-aminoanilino)pyrimidin-4-yl]amino]-2-(6-methyl-2-pyridyl)pyrimidine-5-carboxylic acid], with 8.50 to 9.40.

For the origin of these results see patent US20230399312A1, “SUBSTITUTED PYRIMIDINES AND METHODS OF USE” (THERAVANCE BIOPHARMA R&D IP, LLC, priority 2020, published 2023).
